The values below are quoted from earlier work in publication PMC11910062 (Drug Design, Development and Therapy, 2025).

For data set [1] the following is noted: ref submission materials for new drug application.
For data set [2] the following is noted: CLEAR Outcomes study.

On to `CC(C)(CCCCCC(O)CCCCCC(C)(C)C(=O)O)C(=O)O` [Nexletol, bempedoic acid], for which, in data set [1] (180 mg dose of Nexletol), the Cmax is 19950 ng/mL. Further, the LDL-C reduction in data set [1] (180 mg of Nexletol) is on record as 26%. Besides, in data set [2], the “4 major adverse cardiovascular events (4-MACE) reduction compared with placebo group” value is −13%.
